pIC50: −log10 of the molar value.

In patent US10160747B2, “Compounds and methods for kinase modulation, and indications therefor” (Plexxikon Inc., priority 2016, dated 2018) one finds IC50 data, which are given here for 21 molecules.

In assay [1] the test system is MOLM-14 F691L (endogenous FLT3 ITD and transfected FLT3 F691L). As to the kind of experiment: MOLM-14 F691L cell proliferation assay (CellTiter-Glo). Type of assay: cell-based. Conditions: Homo sapiens, MOLM-14, 72 h; 3 d growth, GMean. In outline: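 Three-day proliferation at 37 °C/5% CO2 of FLT3-ITD MOLM-14 lines with D835Y or F691L mutation, seeded 1×10^4 per well. Compounds at eight points, top 1 μM final, 0.2% DMSO. ATP luminescence (CellTiter-Glo) gives IC50.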
A general note: ATP-based viability assays read luminescence as a measure of living cells.

For a further assay, the target named is T1, FLT3-D835Y (Homo sapiens, UniProt P36888, D835Y).
T1 construct: purchased Invitrogen PV3967
T1 sequence (P36888 27-993 D835Y): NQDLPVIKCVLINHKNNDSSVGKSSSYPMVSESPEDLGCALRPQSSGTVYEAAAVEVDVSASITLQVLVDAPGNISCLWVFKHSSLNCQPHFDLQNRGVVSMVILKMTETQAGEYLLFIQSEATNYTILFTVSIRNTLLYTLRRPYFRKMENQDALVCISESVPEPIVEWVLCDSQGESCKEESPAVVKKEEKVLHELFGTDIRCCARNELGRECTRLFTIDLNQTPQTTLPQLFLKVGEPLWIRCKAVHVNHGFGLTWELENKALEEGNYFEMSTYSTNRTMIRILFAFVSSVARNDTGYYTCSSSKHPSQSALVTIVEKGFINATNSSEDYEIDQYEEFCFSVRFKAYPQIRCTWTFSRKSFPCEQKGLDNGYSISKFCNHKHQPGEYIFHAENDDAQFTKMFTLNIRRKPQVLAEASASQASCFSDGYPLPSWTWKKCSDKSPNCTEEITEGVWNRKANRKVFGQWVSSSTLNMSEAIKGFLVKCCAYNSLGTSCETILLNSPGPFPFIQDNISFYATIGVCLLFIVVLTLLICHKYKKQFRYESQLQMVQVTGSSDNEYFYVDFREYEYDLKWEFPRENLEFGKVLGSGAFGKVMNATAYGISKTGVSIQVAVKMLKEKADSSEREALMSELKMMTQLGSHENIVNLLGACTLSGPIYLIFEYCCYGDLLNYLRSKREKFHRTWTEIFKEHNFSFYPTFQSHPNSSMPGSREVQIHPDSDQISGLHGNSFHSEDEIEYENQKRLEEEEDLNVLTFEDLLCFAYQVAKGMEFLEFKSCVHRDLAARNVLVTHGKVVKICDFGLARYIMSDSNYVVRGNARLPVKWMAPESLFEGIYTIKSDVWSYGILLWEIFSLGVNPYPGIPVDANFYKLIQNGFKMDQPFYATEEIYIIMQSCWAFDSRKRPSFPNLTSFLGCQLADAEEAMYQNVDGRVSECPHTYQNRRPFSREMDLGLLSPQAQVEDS
As to the kind of experiment: FLT3-D835Y recombinant enzyme kinase assay (AlphaScreen). Conditions: 8 pt, GMean. The class given is biochemical. In outline:
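IC50 values come from AlphaScreen proximity signal: phosphorylated biotin-poly(Glu4-Tyr) (30 nM) bridges streptavidin donor and anti-phosphotyrosine PY20 acceptor beads. Enzyme reactions ran at 100 μM ATP for c-KIT versus 10 μM for both FLT3 mutants (ITD, D835Y); beads added in stop buffer, room temperature.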

As a reminder, the pIC50 is the negative decadic logarithm of the IC50, by convention in mol/L. Take `COc1ncc(NC(=O)Cc2ccc(-c3cnc4[nH]nc(Cl)c4c3)cc2)cc1C(F)(F)F` [Compound P-0230, 2-[4-(3-chloro-1H-pyrazolo[3,4-b]pyridin-5-yl)phenyl]-N-[6-methoxy-5-(trifluoromethyl)-3-pyridyl]acetamide]: the pIC50 (in assay [1]; on FLT3-D835Y) was 5.00 to 10.00 each time.
Consider `O=C(Cc1ccc(-c2cnc(Nc3cnn(C4CC4)c3)nc2)cc1F)Nc1ccc(C(F)(F)F)cn1` [Compound P-0243, 2-[4-[2-[(1-cyclopropylpyrazol-4-yl)amino]pyrimidin-5-yl]-2-fluoro-phenyl]-N-[5-(trifluoromethyl)-2-pyridyl]acetamide], for which the pIC50 (in assay [1]; on FLT3-D835Y) was 5.00 to 10.00 in each case.
Take `Cn1cc(Nc2ncc(-c3ccc(CC(=O)Nc4cc(C(F)(F)F)ccn4)cc3F)cn2)cn1` [Compound P-0017, 2-[3-fluoro-4-[2-[(1-methylpyrazol-4-yl)amino]pyrimidin-5-yl]phenyl]-N-[4-(trifluoromethyl)-2-pyridyl]acetamide]: the pIC50 (in assay [1]; at FLT3-D835Y) was 5.00 to 10.00 each time.
With `COc1ncc(NC(=O)Cc2ccc(-c3cnc4[nH]nc(N)c4c3)cc2)cc1C(F)(F)F` [Compound P-0216, 2-(4-(3-amino-1H-pyrazolo[3,4-b]pyridin-5-yl)phenyl)-N-(6-methoxy-5-(trifluoromethyl)pyridin-3-yl)acetamide], the pIC50 (in assay [1]; at FLT3-D835Y) was 5.00 to 10.00 each time.
For `Cc1ncc(NC(=O)Cc2ccc(-c3cnc(Nc4cnn(C)c4C)nc3)cc2)cc1C(F)(F)F` [Compound P-0229, 2-[4-[2-[(1,5-dimethylpyrazol-4-yl)amino]pyrimidin-5-yl]phenyl]-N-[6-methyl-5-(trifluoromethyl)-3-pyridyl]acetamide], the pIC50 (in assay [1]; at FLT3-D835Y) was 5.00 to 10.00 in each case.
Take `CC(C)(O)C#Cc1cc2cc(-c3ccc(CC(=O)Nc4cncc(C(F)(F)F)c4)cc3)cnc2[nH]1` [Compound P-0204, 2-[4-[2-(3-hydroxy-3-methyl-but-1-ynyl)-1H-pyrrolo[2,3-b]pyridin-5-yl]phenyl]-N-[5-(trifluoromethyl)-3-pyridyl]acetamide]: the pIC50 (in assay [1]; at FLT3-D835Y) was 5.00 to 10.00 throughout.
Turning to `COc1ncc(NC(=O)Cc2ccc(-c3cnc4[nH]c(C#Cc5cncn5C)cc4c3)cc2)cc1C(F)(F)F` [Compound P-0227, N-[6-methoxy-5-(trifluoromethyl)-3-pyridyl]-2-[4-[2-[2-(3-methylimidazol-4-yl)ethynyl]-1H-pyrrolo[2,3-b]pyridin-5-yl]phenyl]acetamide], the pIC50 (in assay [1]; on FLT3-D835Y) was 5.00 to 10.00 each time.
Turning to `COc1ncc(NC(=O)Cc2ccc(-c3cnc4[nH]c(-c5cnn(C(F)F)c5)cc4c3)cc2F)cc1C(F)(F)F` [Compound P-0015, 2-[4-[2-[1-(difluoromethyl)pyrazol-4-yl]-1H-pyrrolo[2,3-b]pyridin-5-yl]-2-fluoro-phenyl]-N-[6-methoxy-5-(trifluoromethyl)-3-pyridyl]acetamide], the negative logarithm of the IC50 (pIC50) (in assay [1]; on FLT3-D835Y) was 5.00 to 10.00 each time.
Turning to `COc1ncc(NC(=O)Cc2ccc(-c3cnc4[nH]nc(OC)c4c3)cc2)cc1C(F)(F)F` [Compound P-0212, 2-[4-(3-methoxy-1H-pyrazolo[3,4-b]pyridin-5-yl)phenyl]-N-[6-methoxy-5-(trifluoromethyl)-3-pyridyl]acetamide], the pIC50 (in assay [1]; at FLT3-D835Y) was 5.00 to 10.00 in each case.
For the molecule `CCn1cc(Nc2ncc(-c3ccc(CC(=O)Nc4cnc(Cl)c(C(F)(F)F)c4)c(F)c3)cn2)cn1` [Compound P-0260, N-[6-chloro-5-(trifluoromethyl)-3-pyridyl]-2-[4-[2-[(1-ethylpyrazol-4-yl)amino]pyrimidin-5-yl]-2-fluoro-phenyl]acetamide], the pIC50 (in assay [1]; on FLT3-D835Y) was 5.00 to 10.00 throughout.
With `COCCn1cc(Nc2ncc(-c3ccc(CC(=O)Nc4cc(C(F)(F)F)ccn4)c(F)c3)cn2)cn1` [Compound P-0270, 2-[2-fluoro-4-[2-[[1-(2-methoxyethyl)pyrazol-4-yl]amino]pyrimidin-5-yl]phenyl]-N-[4-(trifluoromethyl)-2-pyridyl]acetamide], the pIC50 (in assay [1]; on FLT3-D835Y) was 5.00 to 10.00 throughout.
For `COCCn1cc(Nc2ncc(-c3ccc(CC(=O)Nc4ccc(C(F)(F)F)cn4)cc3)cn2)cn1` [Compound P-0274, 2-[4-[2-[[1-(2-methoxyethyl)pyrazol-4-yl]amino]pyrimidin-5-yl]phenyl]-N-[5-(trifluoromethyl)-2-pyridyl]acetamide], the pIC50 (in assay [1]; at FLT3-D835Y) was 5.00 to 10.00 in each case.
With `Cc1ncc(NC(=O)Cc2ccc(-c3cnc4[nH]c(C#CC(C)(C)O)cc4c3)cc2)cc1C(F)(F)F` [Compound P-0220, 2-[4-[2-(3-hydroxy-3-methyl-but-1-ynyl)-1H-pyrrolo[2,3-b]pyridin-5-yl]phenyl]-N-[6-methyl-5-(trifluoromethyl)-3-pyridyl]acetamide], the pIC50 (in assay [1]; on FLT3-D835Y) was 5.00 to 10.00 throughout.
As to `CCn1cc(Nc2ncc(-c3cc(F)c(CC(=O)Nc4cnc(C)c(C(F)(F)F)c4)cc3F)cn2)cn1` [Compound P-0249, 2-[4-[2-[(1-ethylpyrazol-4-yl)amino]pyrimidin-5-yl]-2,5-difluoro-phenyl]-N-[6-methyl-5-(trifluoromethyl)-3-pyridyl]acetamide], the pIC50 (in assay [1]; on FLT3-D835Y) was 5.00 to 10.00 each time.
As for `O=C(Cc1ccc(-c2cnc3[nH]c(-c4ccnc(N5CCOCC5)c4)cc3c2)c(F)c1)Nc1cncc(C(F)(F)F)c1` [Compound P-0201, 2-[3-fluoro-4-[2-(2-morpholino-4-pyridyl)-1H-pyrrolo[2,3-b]pyridin-5-yl]phenyl]-N-[5-(trifluoromethyl)-3-pyridyl]acetamide], the pIC50 (in assay [1]; at FLT3-D835Y) was 5.00 to 10.00 throughout.
For `COc1ncc(NC(=O)Cc2ccc(-c3cnc4[nH]nc(NC(=O)C(F)(F)F)c4c3)cc2)cc1C(F)(F)F` [Compound P-0215, 2,2,2-trifluoro-N-[5-[4-[2-[[6-methoxy-5-(trifluoromethyl)-3-pyridyl]amino]-2-oxo-ethyl]phenyl]-1H-pyrazolo[3,4-b]pyridin-3-yl]acetamide], the pIC50 (in assay [1]; at FLT3-D835Y) was 5.00 to 10.00 each time.
For the molecule `O=C(Cc1ccc(-c2cnc(Nc3cnn(C4CC4)c3)nc2)cc1)Nc1ccc(C(F)(F)F)cn1` [Compound P-0236, 2-[4-[2-[(1-cyclopropylpyrazol-4-yl)amino]pyrimidin-5-yl]phenyl]-N-[5-(trifluoromethyl)-2-pyridyl]acetamide], the pIC50 (in assay [1]; on FLT3-D835Y) was 5.00 to 10.00 each time.
On to `COCCn1cc(Nc2ncc(-c3ccc(CC(=O)Nc4cc(C(F)(F)F)ccn4)cc3)cn2)cn1` [Compound P-0222, 2-[4-[2-[[1-(2-methoxyethyl)pyrazol-4-yl]amino]pyrimidin-5-yl]phenyl]-N-[4-(trifluoromethyl)-2-pyridyl]acetamide], for which the pIC50 (in assay [1]; at FLT3-D835Y) was 5.00 to 10.00 each time.
As for `CCn1cc(Nc2ncc(-c3ccc(CC(=O)Nc4ccc(C(F)(F)F)nc4)c(F)c3)cn2)cn1` [Compound P-0257, 2-[4-[2-[(1-ethylpyrazol-4-yl)amino]pyrimidin-5-yl]-2-fluoro-phenyl]-N-[6-(trifluoromethyl)-3-pyridyl]acetamide], the pIC50 (in assay [1]; on FLT3-D835Y) was 5.00 to 10.00 throughout.
For `Cn1cc(Nc2ncc(-c3cc(F)c(CC(=O)Nc4cc(C(F)(F)F)ccn4)cc3F)cn2)cn1` [Compound P-0019, 2-[2,5-difluoro-4-[2-[(1-methylpyrazol-4-yl)amino]pyrimidin-5-yl]phenyl]-N-[4-(trifluoromethyl)-2-pyridyl]acetamide], the pIC50 (in assay [1]; on FLT3-D835Y) was 5.00 to 10.00 each time.
With `COc1ncc(NC(=O)Cc2cc(F)c(-c3cnc(Nc4cnn(C)c4)nc3)cc2F)cc1C(F)(F)F` [Compound P-0208, 2-[2,5-difluoro-4-[2-[(1-methylpyrazol-4-yl)amino]pyrimidin-5-yl]phenyl]-N-[6-methoxy-5-(trifluoromethyl)-3-pyridyl]acetamide], the pIC50 (in assay [1]; at FLT3-D835Y) was 5.00 to 10.00 each time.
